Laboratory results taken from patent US5420289A, “Substituted indole-, indene-, pyranoindole- and tetrahydrocarbazole-alkanoic acid derivatives as inhibitors of PLA2 and lipoxygenase” (American Home Products Corporation, priority 1993, dated 1995).

How the values were obtained:
[1] = test system: cyclooxygenase (PGE2 synthesis) in rat polymorphonuclear leukocytes (PMN); assay: inhibition of PGE2 synthesis (cyclooxygenase) by rat glycogen-elicited PMN (Example 73); type: cell-based, rat (female Wistar); conditions: Leukocyte, * (negative) denotes a potentiation; for inhibition at 10000 µM: at 10 mM, read-out: % Inhibition (PGE2 synthesis); for inhibition at 500 µM: at 0.5 mM
Description: (§1) Rat polymorphonuclear leukocytes (PMNs) are obtained from female Wistar rats (150-200 g) which receive an injection of 6% glycogen (10 ml i.p.). Rats are sacrificed 18-24 hours post injection by CO2 asphyxiation and the elicited cells are harvested by peritoneal lavage using physiological saline (0.9% NaC1). The exudate is centrifuged at 400 ×g for 10 minutes. The supernatant fluid is discarded and the cell pellet is resuspended to a concentration of 2.0×10^7 cells/mL in HBSS containing Ca^++ and Mg^++ and 10 mM L-cysteine.
(§2) To 1 mL aliquots of cell suspension, test drugs or vehicle are added, then preincubated at 37° C. for 10 minutes. A23187 (1 mM), [^3 H]-AA (3.0 mCi/mL) and unlabeled AA (1 mM) are then added and the samples are further incubated for 10 minutes. The reaction is terminated by centrifugation and pelleting cells. Supernatants are then analyzed by HPLC analysis on a 15 cm×4.6 mm ID supelcosil LC-18 (Supelco)(3M) column, using a two solvent system at a flow rate of 1.4 mL total flow as follows:
In this assay, the procedure of Example 72 is carried out as described. However, in order to determine cyclooxygenase activity, the samples are cochromatographed with authentic reference [^3 H]-PGE2.
The results be calculated as in Example 72 and presented below: […]

[2] = test system: paw edema induced by PLA2 from the diamond back cotton mouth snake (A. piscivorus piscivorus); assay: in vivo PLA2 murine paw edema assay (Example 75); design: species or system mouse (male CD-1); conditions: for ED50 at +10 min.: p.o., at +10 min after PLA2, standard drugs
Description: The ability of the compounds of the invention to inhibit paw edema induced by the exogenous administration of PLA2 is measured in the in vivo PLA2 murine paw edema assay.
The assay is carried out as follows:
Non-fasted, male CD-1 mice (8 weeks old; 31-36 grams) are placed in plastic boxes in groups of six. The right hind paw volume is measured using mercury plethysmography (zero time). Compounds are dosed orally (0.5 mL of 0.5% Tween-80) 1 or 3 hours prior to PLA2 injection or intravenously (0.2 mL in 0.3% dimethylsulfoxide/saline) 3 minutes prior to PLA2 injection. A solution of purified PLA2, from the diamond back cotton mouth snake (A. piscivorus piscivorus) is prepared in saline at a concentration of 6 mg/mL. Fifty (50) uL (0.3 mg) of this PLA2 solution is injected subcutaneously into the right hind paw with a plastic 1 mL plastic syringe (27 gauge, "1" needle). Paw volume of the injected paw is measured again at 10 minutes, 30 minutes and 60 minutes after PLA2 injection. Animals are euthanized with CO2 at the completion of the study.
The paw edema is calculated by subtracting the zero time volume from the volume recorded at each time period. Mean paw edema for each treatment group is then calculated and expressed as (mL±S.E.). Drug effects are expressed as a percent change from control (vehicle) values. Statistical significance is determined by a one-way analysis of variance with LSD comparison to control (p<0.05). ED50 's are determined using repression analysis.

[3] = target: T1, human synovial fluid PLA2 (Homo sapiens, UniProt P14555); assay: in vitro isolated phospholipase A2 assay, human synovial fluid PLA2 (Example 74); type: biochemical; design: inhibition / % Inhibition, HSF (human synovial fluid): dose or concentration left out as unconfirmed; conditions: for IC50: Table III, read-out: IC50 HSF (human synovial fluid); for inhibition: read-out: % Inhibition, HSF (human synovial fluid)
T1 sequence (P14555 21-144): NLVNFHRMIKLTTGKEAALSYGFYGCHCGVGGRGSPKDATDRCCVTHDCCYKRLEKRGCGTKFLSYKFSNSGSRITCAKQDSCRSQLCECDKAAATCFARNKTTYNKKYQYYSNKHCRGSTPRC
Method in brief: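 Human synovial fluid PLA2 (purified) acts on ³H-arachidonate-labelled E. coli substrate, 10 minutes at 37° C with shaking; stopped with tetrahydrofuran. Released arachidonic acid is isolated on NH2 columns, eluted with tetrahydrofuran/2% acetic acid and quantitated by β-counting against a total-counts sample.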

[4] = test system: synthesis of LTB4 by rat glycogen-elicited polymorphonuclear leukocytes (PMN); assay: inhibition of LTB4 synthesis by rat glycogen-elicited PMN (Example 72); type: cell-based, rat (female Wistar); conditions: Leukocyte; for inhibition at 10000 µM: at 10 mM, negative number denotes potentiation
Source text: This is especially true with respect to 5,12-diHETE, which is also denoted as LTB4 lsee Ford-Hitchinson, J. Roy. Soc. Med., 74, 831 (1981)]. Compounds which inhibit the PLA2 -mediated release of arachidonic acid thereby effectively prevent the oxidation of arachidonic acid to the various leukotriene products via the lipoxygenase cascade. Accordingly, the specificity of action of PLA2 inhibitors can be determined by the activity of test compounds in this assay, which measures the ability of compounds to inhibit the synthesis of LTB4 by rat glycogen-elicited polymorphonuclear leukocytes (PMN) in the presence of exogenous substrate.
The assay is carded out as follows:
as §1, §2
Gradient: (system is equilibrated with Solvent A)
Percent solvent changes are accomplished in a linear fashion.
Injections: […] of each supernatant is injected directly onto column and ^3 H arachidonic acid metabolites are monitored using an on-line radioactivity detector (Ramona, IN/U S, Fairfield, NJ).
Standards: 10^4 -2.0×10^4 dpm of eicosanoids of interest are injected in […] EtOH cocktail.
Co-chromatography with standard [^3 H] leukotriene B4 (LTB4) in medium of stimulated PMN exposed to drug is compared to that found in medium of stimulated cells exposed to no drug, generating percent inhibition.
Results are expressed as percent inhibition at a given compound dose or as an IC50 value.

human platelet PLA2 = target: T2, human platelet PLA2 (Homo sapiens, UniProt P14555); assay: in vitro isolated phospholipase A2 assay, human platelet PLA2 (Example 74); type: biochemical; design: dose or concentration left out as unconfirmed; conditions: read-out: % Inhibition, HP (human platelet)
T2 construct: Semi-purified human platelet acid extract PLA2; from tissue; host or cells: human platelets (semi-purified acid extract)
T2 sequence (P14555 21-144): T1 sequence (P14555 21-144)
Description: The compounds of the invention are tested in an in vitro isolated phospholipase A2 assay to determine the ability of the test compounds to inhibit the release of arachidonic acid from an arachidonic acid-containing substrate by the action of phospholipase A2 enzyme from human and non-human sources.
This assay is carried out as follows:
Into a 15 mL polypropylene tube are added the following:
^6 Two human PLA2 enzymes are used:
a) Semi-purified human platelet acid extract PLA2 (in 10 mM
sodium acetate buffer, pH 4.5). Remove protein precipitate by
centrifugation at about 2200 rpm for 10 minutes.
Incubate the 100mL reaction mixture for 10 minutes at 37° C. in a shaking water bath. The reaction is terminated by the addition of 2 mL tetrahydrofuran, followed by vortexlag. NH2 columns (100 mg/mL--Analytichem International) are conditioned with 0.5 mL tetrahydrofuran followed by 0.5 mL tetrahydrofuran/water (2 mL:0.1 mL, v/v).
The sample is loaded onto the columns and slowly drawn through them. The hydrolyzed arachidonic acid retained in the columns is eluted therefrom with 1 mL tetrahydrofuran/glacial acetic acid (2%). The arachidonic acid is transferred to scintillation vials and quantitated by b-counting analysis. A "total counts" sample is prepared by pipetting […] ^3 H-arachidonate E. coli directly into a scintillation vial to which is added 1 mL tetrahydrofuran. 10 mL aquasol (scintillation cocktail) is added to all samples. [formula]

[5] = test system: paw edema induced by PLA2 from the diamond back cotton mouth snake (A. piscivorus piscivorus); assay: in vivo PLA2 murine paw edema assay (Example 75); design: species or system mouse (male CD-1)

Compound: CSc1ccc(/C=C2/C(C)=C(CC(=O)O)c3cc(OCc4ccc5ccccc5n4)ccc32)cc1 [Example 2, 2-Methyl-3-[[4-(methylthio)phenyl]methylene]-6-(2-quinolinylmethoxy)-3H-indene-1-acetic acid]
- inhibition at 10000 µM [1]: 92%
- % Change in Edema ([2]; 10 mg/kg i.v., 10 min): -39%
- % Change in Edema ([2]; 10 mg/kg i.v., 30 min): -43%
- % Change in Edema ([2]; 10 mg/kg i.v., 60 min): -37%
- % Change in Edema ([2]; 100 mg/kg p.o., 10 min): -6%
- % Change in Edema ([2]; 100 mg/kg p.o., 30 min): -22%
- % Change in Edema ([2]; 100 mg/kg p.o., 60 min): +18%
- IC50 [3]: 3.6 µM
- inhibition at 10000 µM [4]: 96%

Compound: COc1ccc2cc([C@H](C)C(=O)O)ccc2c1 [Naproxen, reference compound]
- ED50 at +10 min. [2]: 18 mg/kg

Compound: CC1=C(CC(=O)O)c2cc(F)ccc2C1=Cc1ccc(OCc2ccc3ccccc3n2)cc1 [Example 4, 5-Fluoro-2-methyl-1-[[4-(2-quinolinylmethoxy)phenyl]methylene]-1H-indene-3-acetic acid]
- inhibition at 500 µM [1]: 7%
- inhibition (human platelet PLA2): 58%
- inhibition [3]: 48%
- inhibition at 500 µM ([4]; at 0.5 mM): 92%

Compound: C[C@@H]1C[C@H]2[C@@H]3CCC4=CC(=O)C=C[C@]4(C)[C@@]3(F)[C@@H](O)C[C@]2(C)[C@@]1(O)C(=O)CO [Dexamethasone]
- ED50 at +10 min. ([5]; p.o. 3 hr, at +10 min after PLA2): 10 mg/kg

Compound: CC1=C(CC(=O)O)c2cc(OCc3ccc4ccccc4n3)ccc2/C1=C\c1ccc(Cl)cc1 [Example 1, 3-[(4-Chlorophenyl)methylene]-[2-methyl-6-(2-quinolinylmethoxy)]-3H-indene-1-acetic acid]
- inhibition at 10000 µM [1]: 81%
- % Change in Edema ([2]; 10 mg/kg i.v., 10 min): -6%
- % Change in Edema ([2]; 10 mg/kg i.v., 30 min): -9%
- % Change in Edema ([2]; 10 mg/kg i.v., 60 min): -40%
- % Change in Edema ([2]; 100 mg/kg p.o., 10 min): +4%
- % Change in Edema ([2]; 100 mg/kg p.o., 30 min): -27%
- % Change in Edema ([2]; 100 mg/kg p.o., 60 min): -6%
- IC50 [3]: 9.7 µM
- inhibition at 10000 µM [4]: 96%

Compound: COc1cccc2c1cc([N+](=O)[O-])c1c(C(=O)O)cc3c(c12)OCO3 [Aristolochic Acid, reference compound]
- ED50 at +10 min. [2]: Not Active

Compound: CCCCCCOc1ccc2c(c1)c(CC(=O)O)c(C)n2Cc1ccc(Cl)cc1 [Example 19, 1-[(4-Chlorophenyl)methyl]-5-(hexyloxy)-2-methyl-1H-indole-3-acetic acid]
- % Change in Edema ([5]; 30 mg/kg i.p., 30 min): -30%
- % Change in Edema ([5]; 60 mg/kg i.p., 30 min): -34%
- inhibition (human platelet PLA2): 71%
- inhibition [3]: 45%

Compound: CC1=C(CC(=O)O)c2cc(OCc3ccc4ccccc4n3)ccc2C1=Cc1ccc(OCc2ccc3ccccc3n2)cc1 [Example 41, 2-Methyl-5-(2-quinolinylmethoxy)-1-[[4-(2-quinolinylmethoxy)phenyl]methylene]-1H-indene-3-acetic acid]
- inhibition at 500 µM [1]: -21%
- inhibition (human platelet PLA2): 90%
- inhibition [3]: 3.8%
- inhibition at 10000 µM [4]: 100%

Compound: Luffarrellolide [reference compound]
- ED50 at +10 min. [2]: Not Active

Compound: COc1ccc2c(c1)c(CC(=O)O)c(C)n2C(=O)c1ccc(Cl)cc1 [indomethacin, reference compound]
- % Change in Edema ([5]; 10 mg/kg p.o., 10 min): -32%
- % Change in Edema ([5]; 10 mg/kg p.o., 30 min): -31%
- % Change in Edema ([5]; 10 mg/kg p.o., 60 min): -42%
- IC50 [3]: 145 µM
